Results published in the supplement of paper PMC11061612.

Legend:
[1] = tested on: 8305C (Thyroid Gland Carcinoma); assay: Bliss excess, mean over the matrix (fraction); higher = more synergy
How it was run: (§1)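 Cell lines grown in DMEM/F12 or RPMI with 10% FBS were plated in 1536-well plates and held 24 hours at 37°C, 5% CO2 before 72 hours of exposure to two-drug dose matrices, with DMSO typically at 0.2%. CellTiter-Glo 2.0 luminescence gave viability, which was converted to inhibition. Vehicle wells were set to 0 and blank wells to 1. Combination Emax is the second-highest inhibition in the matrix, and Bliss excess is the observed combination effect minus the expected EA + EB − EA·EB, where EA and EB are the single-agent effects.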

[2] = tested on: CAL-51 (Breast Carcinoma); assay: as above
How it was run: as §1

[3] = tested on: CAL-54 (Kidney Carcinoma); assay: as above
How it was run: as §1

[4] = tested on: CAPAN-1 (Pancreatic Carcinoma); assay: as above
How it was run: as §1

COLO-829 (Melanoma) = assay: as above
How it was run: as §1

[5] = tested on: HDLM-2 (Hodgkin's Lymphoma); assay: as above
How it was run: as §1

[6] = tested on: Hs-633T (Other Solid Carcinomas); assay: as above
How it was run: as §1

[7] = tested on: KARPAS-231 (B-Cell Non-Hodgkin's Lymphoma); assay: as above
How it was run: as §1

[8] = tested on: KYSE-410 (Esophageal Squamous Cell Carcinoma); assay: as above
How it was run: as §1

[9] = tested on: LB771-HNC (Head and Neck Carcinoma); assay: as above
How it was run: as §1

[10] = tested on: LU-139 (Small Cell Lung Carcinoma); assay: as above
How it was run: as §1

[11] = tested on: MDA-MB-468 (Breast Carcinoma); assay: as above
How it was run: as §1

[12] = tested on: RKO (Colorectal Carcinoma); assay: as above
How it was run: as §1

[13] = tested on: RT-112 (Bladder Carcinoma); assay: as above
How it was run: as §1

[14] = tested on: SUP-T1 (T-Lymphoblastic Leukemia); assay: as above
How it was run: as §1

[15] = tested on: UMC-11 (Other Solid Carcinomas); assay: as above
How it was run: as §1

[16] = tested on: LoVo (Colorectal Carcinoma); assay: combination Emax (second highest fraction inhibited in the dose matrix, 72 h); higher = more inhibition; extreme values may be limits of the assay
How it was run: as §1

[17] = tested on: RT-112 (Bladder Carcinoma); assay: as above
How it was run: as §1

[18] = tested on: SK-OV-3 (Ovarian Carcinoma); assay: as above
How it was run: as §1

[19] = tested on: SUP-T1 (T-Lymphoblastic Leukemia); assay: as above
How it was run: as §1
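Wherever Bliss excess, mean over the matrix is given: after 72 h of two-drug dosing.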

Compound	Bliss excess [1]	Bliss excess [2]	Bliss excess [3]	Bliss excess [4]	Bliss excess (COLO-829 (Melanoma))	Bliss excess [5]	Bliss excess [6]	Bliss excess [7]	Bliss excess [8]	Bliss excess [9]	Bliss excess [10]	Bliss excess [11]	Bliss excess [12]	Bliss excess [13]	Bliss excess [14]	Bliss excess [15]	combination Emax [16]	combination Emax [17]	combination Emax [18]	combination Emax [19]
CN(CCO)CC[C@H](CSc1ccccc1)Nc1ccc(S(=O)(=O)NC(=O)c2ccc(N3CCC([C@@H](O)c4ccccc4-c4ccc(Cl)cc4)CC3)cc2)cc1S(=O)(=O)C(F)(F)F [AZD4320] + Cc1cc2ncnn2cc1Nc1ncc2c(n1)n(C1CCOCC1)c(=O)n2C [AZD7648] (first compound max 1 µM, 7x7, partner max 10 µM)	0.0242	-0.0064	-0.0122	-0.0508	-0.04	-0.0018	0.0109	0.036	-0.0406	-0.0395	0.0151	-0.0012	-0.0148	0.0058	-0.0222	0.0377	0.565	0.293	0.305	0.416
NC1(C(=O)N[C@@H](CCO)c2ccc(Cl)cc2)CCN(c2ncnc3[nH]ccc23)CC1 [Capivasertib] + COc1nnc2ccc(N3CCC(c4ccc(OCCN5CCN(C)C(=O)[C@H]5C)cc4)CC3)nn12 [AZD5153] (first compound max 10 µM, 7x7, partner max 1 µM)	0.014	0.0957	-0.0039	-0.0045	0.011	-0.0507	0.0419	-0.0391	0.0437	0.0208	-0.0574	-0.0281	0.0048	0.0334	-0.0296	0.0063	0.642	0.383	0.535	0.789
Cc1c2c(nn1C)CSCc1cc(n(C)n1)CSc1cc(c3ccccc3c1)OCCCc1c(C(=O)O)n(C)c3c-2c(Cl)ccc13 [AZD5991] + Cn1cnc2c(F)c(Nc3ccc(Br)cc3Cl)c(C(=O)NOCCO)cc21 [Selumetinib] (first compound max 1 µM, 7x7, partner max 3 µM)	-0.0511	0.0634	0.0203	-0.0269	0.0295	-0.0477	0.0542	-0.0645	-0.0058	-0.0118	-0.0283	-0.0389	0.0143	0.102	-0.0246	0.0198	0.565	1	0.333	0.236
CN(C)CCCOc1ccc(-c2ccc3ncc4c(c3c2)n(C2CCOCC2)c(=O)n4C)cn1 [AZD0156] + CCN(CCO)CCCOc1ccc2c(Nc3cc(CC(=O)Nc4cccc(F)c4)[nH]n3)ncnc2c1 [AZD2811] (first compound max 1 µM, 7x7, partner max 1 µM)	-0.0794	0.0226	-0.0129	-0.0635	-0.0587	-0.0208	-0.0139	-0.0205	-0.0431	-0.0498	-0.0441	-0.0326	0.014	-0.0098	0.0321	-0.0622	0.435	0.205	0.138	0.366
CN(C)CCCOc1ccc(-c2ccc3ncc4c(c3c2)n(C2CCOCC2)c(=O)n4C)cn1 [AZD0156] + C=CCn1c(=O)c2cnc(Nc3ccc(N4CCN(C)CC4)cc3)nc2n1-c1cccc(C(C)(C)O)n1 [AZD1775] (first compound max 1 µM, partner max 1 µM)	0.012	-0.0303	-0.043	-0.0768	-0.0486	-0.0554	-0.007	0.0355	-0.0464	-0.0593	-0.0479	-0.0449	-0.0252	-0.0193	-0.0251	-0.0358	0.785	0.514	0.54	0.872
Cc1cc2ncnn2cc1Nc1ncc2c(n1)n(C1CCOCC1)c(=O)n2C [AZD7648] + C=CCn1c(=O)c2cnc(Nc3ccc(N4CCN(C)CC4)cc3)nc2n1-c1cccc(C(C)(C)O)n1 [AZD1775] (first compound max 10 µM, partner max 1 µM)	-0.0825	-0.05	0.016	0.0049	-0.0047	-0.0387	-0.0333	-0.0309	-0.0094	-0.0078	-0.0642	-0.0044	-0.032	0.0239	0.0169	-0.0202	0.732	0.742	0.535	0.834
CC1(C)CCC(CN2CCN(c3ccc(C(=O)NS(=O)(=O)c4ccc(NCC5CCOCC5)c([N+](=O)[O-])c4)c(Oc4cnc5[nH]ccc5c4)c3)CC2)=C(c2ccc(Cl)cc2)C1 [Venetoclax] + C1CN(CCC1(C(=O)N[C@@H](CCO)C2=CC=C(C=C2)Cl)N)C3=NC=NC4=C3C=CN4 [Capivasertib] (first compound max 1 µM, 7x7, partner max 3 µM)	0.0038	-0.0879	-0.027	-0.0473	-0.045	-0.0166	-0.0185	-0.182	-0.0427	-0.008	-0.0467	-0.0435	-0.0173	-0.0313	-0.0641	-0.038	0.454	0.192	0.353	0.757
CC1(C)CCC(CN2CCN(c3ccc(C(=O)NS(=O)(=O)c4ccc(NCC5CCOCC5)c([N+](=O)[O-])c4)c(Oc4cnc5[nH]ccc5c4)c3)CC2)=C(c2ccc(Cl)cc2)C1 [Venetoclax] + COc1cc(Nc2ncc3c(n2)-c2ccc(Cl)cc2C(c2c(F)cccc2OC)=NC3)ccc1C(=O)O [Alisertib] (first compound max 1 µM, 7x7, partner max 10 µM)	-0.0592	0.0319	-0.0251	-0.0425	-0.0548	0.0993	-0.0237	0.0566	-0.0651	-0.0185	0.149	0.0409	-0.0062	-0.0323	0.0423	0.192	0.48	0.673	0.315	0.611
Cc1c2c(nn1C)CSCc1cc(n(C)n1)CSc1cc(c3ccccc3c1)OCCCc1c(C(=O)O)n(C)c3c-2c(Cl)ccc13 [AZD5991] + CC1(C)CCC(CN2CCN(c3ccc(C(=O)NS(=O)(=O)c4ccc(NCC5CCOCC5)c([N+](=O)[O-])c4)c(Oc4cnc5[nH]ccc5c4)c3)CC2)=C(c2ccc(Cl)cc2)C1 [Venetoclax] (first compound max 1 µM, 7x7, partner max 1 µM)	-0.0189	0.0481	-0.0151	-0.0459	-0.0122	0.162	-0.016	-0.0232	-0.0393	0.0035	0.0307	0.0812	0.0107	0.057	-0.0207	0.0749	0.147	0.99	0.219	0.304
CN(CCO)CC[C@H](CSc1ccccc1)Nc1ccc(S(=O)(=O)NC(=O)c2ccc(N3CCC([C@@H](O)c4ccccc4-c4ccc(Cl)cc4)CC3)cc2)cc1S(=O)(=O)C(F)(F)F [AZD4320] + CCN(CCO)CCCOc1ccc2c(Nc3cc(CC(=O)Nc4cccc(F)c4)[nH]n3)ncnc2c1 [AZD2811] (first compound max 1 µM, 7x7, partner max 1 µM)	0.0076	0.0881	-0.0406	-0.0309	-0.0465	0.0781	-0.0212	0.0493	-0.0437	-0.0227	0.0775	0.0461	-0.0162	0.172	0.0933	-0.0565	0.317	0.913	0.178	0.545
Cc1c2c(nn1C)CSCc1cc(n(C)n1)CSc1cc(c3ccccc3c1)OCCCc1c(C(=O)O)n(C)c3c-2c(Cl)ccc13 [AZD5991] + C[C@@H]1COCCN1C2=NC(=NC(=C2)C3(CC3)[S@](=N)(=O)C)C4=C5C=CNC5=NC=C4 [AZD6738] (first compound max 1 µM, 7x7, partner max 10 µM)	-0.0605	0.0585	-0.0259	-0.0167	0.0471	-0.0291	0.0184	0.0252	0.0281	0.0599	0.0214	0.0455	0.0082	0.0348	-0.024	-0.0265	0.889	0.958	0.556	0.741
NC1(C(=O)N[C@@H](CCO)c2ccc(Cl)cc2)CCN(c2ncnc3[nH]ccc23)CC1 [Capivasertib] + CC(C)n1c(=O)n(C)c2cnc3cc(F)c(-c4ccc(OCCCN5CCCCC5)nc4)cc3c21 [AZD1390] (first compound max 10 µM, 7x7, partner max 0.3 µM)	-0.0773	-0.0972	-0.0687	-0.0812	-0.126	-0.0002	-0.0656	-0.0035	-0.0795	-0.0687	-0.0204	-0.0464	-0.0429	-0.0581	-0.0615	-0.0807	0.586	0.255	0.383	0.718
